In publication doi:10.1101/2025.11.27.690678v1, “Experience from an HTS campaign: Investigation of susceptibility and rescue of SARS-CoV-2 nsp3 protease assay from metal contamination” (biorxiv, 2025):

Molecular target: T1, SARS-CoV-2 nsp3 (Twinstrep nsp3 (179-1329)-His); PLPro (Severe acute respiratory syndrome coronavirus 2, UniProt P0DTD1)
T1 construct: gene rep
Assay: fluorescence, RLRGG-AMC cleavage
Assay type: biochemical
Description: fluorescence, RLRGG-AMC cleavage on SARS-CoV-2 nsp3 (Twinstrep nsp3 (179-1329)-His); PLPro

Structure (SMILES)	IC50
Cn1ccnc1-c1cn(CCCc2csc(N)n2)nn1 [compound 2, Compound 2]	> 100 µM
COc1ccc(-n2cc(CNC(=O)c3cc[nH]n3)nn2)cc1 [compound 3, Compound 3]	> 100 µM
O=C(O)c1cn(-c2cccc(C(F)(F)F)c2)nn1 [compound 1, Compound 1]	> 100 µM
CC(=O)Nc1ccc(Sc2ccccc2C(=O)O)cn1 [compound 4, Compound 4]	> 100 µM
